Assay [1] has as its target T1, P2X4/P2X7/Pannexin-1 channels (Mus musculus, UniProt Q9JJX6).
T1 construct: endogenous in cells; host or cells: 4T1.2 mouse breast cancer cells
T1 sequence (Q9JJX6 1-388): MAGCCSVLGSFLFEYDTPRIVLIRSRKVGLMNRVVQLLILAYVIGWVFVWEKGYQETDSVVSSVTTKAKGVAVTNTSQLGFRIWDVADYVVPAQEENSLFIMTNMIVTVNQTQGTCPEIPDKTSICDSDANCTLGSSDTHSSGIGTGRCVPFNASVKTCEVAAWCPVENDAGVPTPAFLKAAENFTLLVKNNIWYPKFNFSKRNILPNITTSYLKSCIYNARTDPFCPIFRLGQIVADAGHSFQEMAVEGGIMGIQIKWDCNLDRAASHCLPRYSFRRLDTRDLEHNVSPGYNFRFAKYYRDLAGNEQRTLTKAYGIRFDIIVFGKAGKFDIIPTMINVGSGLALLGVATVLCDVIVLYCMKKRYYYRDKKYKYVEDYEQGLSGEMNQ
Description: Membrane permeabilization to YOPRO-1. Format: cell-based. The following applies: 4T1.2 cells, Ivermectin 0.5-32 μM, ATP 0.3-3 mM, 30 min. The procedure:
FIGS. 3A-3G. Dual roles of ATP and purinergic signaling in Ivermectin's killing. FIG. 3A: Depletion of extracellular ATP with Apyrase (2500 μunits/ml) exacerbates killing of 4T1.2 cell by Ivermectin. FIG. 3B: Extracellular Ca^2− and ATP contain Ivermectin-induced cell swelling. 4T1.2 cells were treated with 32 μM Ivermectin for 4 h in the presence of 1 mM EDTA or 2500 μunits/ml Apyrase. FIG. 3C: Ivermectin (0.5-32 μM) and high concentrations of extracellular ATP (0.3-3 mM) synergistically open pannexin-1 channels and permeabilize the membrane on live cells (7AAD-positive dead cells were gated out). 4T1.2 cells were treated for 30 min as indicated in the presence of 7 AAD and 5 μM YOPRO-1. FIG. 3D: Analysis of supernatants from Ivermectin-treated murine and human TNBC cells showing rapid release of ATP followed by its transient depletion. Depletion of extracellular ATP with Apyrase (2500 μunits/ml) was used as a positive control. FIG. 3E: Analysis of membrane-proximal ATP levels using cancer cells engineered to express a membrane-bound Luciferase. […] FIG. 3G: The P2X7-specific inhibitor KN-62 (1-10 μM) blocks Ivermectin cytotoxicity (IVM 8-32 μM, 4-48 h treatments). Asterisk (*) indicates p<0.05 relative to untreated or Ivermectin alone controls, respectively.
FIGS. 10A-10L. Extracellular Dual roles of ATP and purinergic signaling in Ivermectin's killing. 4T1.2 cells were treated with Ivermectin for 4 h in the presence of different inhibitors at μM concentrations as indicated. FIG. 10A: The non-specific P2 purinergic receptor inhibitor Suramin (4-400 μM) exacerbates Ivermectin-induced cell death. FIG. 10B: Inhibition of extracellular ATPases with PSB 069 protects against Ivermectin cytotoxicity. FIG. 10C: Blockade of pannexin-1 channels with Panx-1 mimetic blocking peptide (Anaspec) and Probenecid at μM concentrations as indicated exacerbates killing. […] FIG. 10E: ATP plays a transiently protective role only in the mouse but not human breast cancer cells. 4T1.2 and MDA-MB-231 cells were treated with 32 μM Ivermectin for 4 h in the presence of ATP at mM concentrations as indicated. FIG. 10F: qPCR showing up-regulation of P2X4 and P2X7 receptors on several murine cancer cell lines, including 4T1.2 and DD-Her2/neu (breast), and B16 (melanoma). […] Expression of P2X and P2Y purinergic receptors, NOX family members, GABA, and Glycine receptors was analyzed using publicly available breast cancer cell lines datasets. Statistically significant (p<0.05) up-regulation and down-regulation in breast cancer versus normal cells is shown in red and blue, respectively. FIG. 10H: Correlation between sensitivity to Ivermectin and ATP across various human cancer cell lines. Cancer cells were treated for 24 h with 3 mM ATP or Ivermectin at 16 and 32 μM doses as indicated. […]

The test system of assay [2] is 4T1.2 breast cancer cells. The assay can be described thus: Plasma membrane polarization. Format: cell-based. As to conditions: mouse 4T1.2 cells. Here is the method:
Plasma membrane polarization. Cancer cells in suspension were treated with various doses of Ivermectin in the presence of 0.5 μM DiBAC4 (3) (Sigma D8189). Treatments were performed in serum free RPMI medium and cells were analyzed by flow cytometry after 1h of incubation. De-/hyper-polarization results in increased/decreased fluorescence in the GFP channel, respectively.

Each structure is given as a SMILES string.

For the compound `CC[C@H](C)[C@H]1O[C@]2(CC[C@@H]1C)C[C@@H]1C[C@@H](C/C=C(\C)[C@@H](O[C@H]3C[C@H](OC)[C@@H](O[C@H]4C[C@H](OC)[C@@H](O)[C@H](C)O4)[C@H](C)O3)[C@@H](C)/C=C/C=C3\CO[C@@H]4[C@H](O)C(C)=C[C@@H](C(=O)O1)[C@]34O)O2` [Ivermectin], in assay [1], the “opening of channels / permeabilization to YOPRO-1 with ATP” value is “synergized with ATP in opening P2X4/P2X7/Pannexin-1 channels”. Moreover, the plasma membrane polarization entry in assay [2] is “plasma membrane hyper-polarization”.

Values taken from US11058700B2, “Macrocyclic lactones and uses thereof as modulators of purinergic receptors” (City of Hope, priority 2015, dated 2021).
